Data taken from the Deep4Chem optical property database.
Several values for one entry are separate records, joined by “and”; a condition that tells them apart may be missing. Equal entries are not always repeated.

Assay: solvent given as SMILES
[1] = in O=P(c1ccccc1)(c1ccccc1)c1ccccc1Oc1ccccc1P(=O)(c1ccccc1)c1ccccc1

Cc1cc(-c2nc(-c3ccccc3)nc(-c3ccccc3)n2)ccc1N1c2ccccc2C2(c3ccccc3-c3ccccc32)c2ccccc21
emission maximum (in Cc1ccccc1): 481 nm

CCCCCCN1C(=O)c2cc(-c3ccc(-n4c5ccccc5c5ccccc54)cc3)c(-c3ccc(-n4c5ccccc5c5ccccc54)cc3)cc2C1=O
emission maximum (in ClC(Cl)Cl): 548 nm
emission maximum (in c1ccc2c(c1)c1ccccc1n2-c1ccc(-c2ccc(-n3c4ccccc4c4ccccc43)cc2)cc1): 481 nm

C(=C\c1c2ccccc2cc2ccccc12)/c1cnc2ccccc2c1
emission maximum (in CC1CCCCC1): 488 nm
emission maximum (in CC#N): 494 nm

O=c1c2cc3ccc4cccc5ccc(c2c(=O)n1-c1ccccc1)c3c45
emission maximum (in ClC(Cl)Cl): 461 nm

N#Cc1cccc2cc[nH]c12
emission maximum (in C1CCOC1): 368 nm
emission maximum (in C1COCCO1): 367 nm
emission maximum (in CC#N): 378 nm
emission maximum (in CC(C)O): 380 nm
emission maximum (in CCO): 382 nm
emission maximum (in CO): 387 nm
emission maximum (in CS(C)=O): 391 nm
emission maximum (in O): 400 nm
emission maximum (in OCC(F)(F)F): 391 nm

CC[N+]1(CC)CN2C(=N1)C(C(=O)O)=Cc1ccccc12
emission maximum (in CN(C)C=O): 463 nm
emission maximum (in O): 462 nm

COc1cc2c(cc1/C=C(\C#N)c1nc3ccccc3s1)c1ccccc1n2C
emission maximum (in C1CCOC1): 499 nm
emission maximum (in CC#N): 509 nm
emission maximum (in CCOC(C)=O): 493 nm
emission maximum (in CN(C)C=O): 508 nm
emission maximum (in CO): 510 nm
emission maximum (in CS(C)=O): 518 nm
emission maximum (in Cc1ccccc1): 494 nm
emission maximum (in ClC(Cl)Cl): 504 nm
emission maximum (in ClCCl): 501 nm

CN(C)c1ccc(/C=C/c2ccc(-c3nc(C#N)c(C#N)n3C)cc2)cc1
emission maximum (in C1CCCCC1): 437 nm
emission maximum (in CC#N): 530 nm
emission maximum (in CO): 514 nm
emission maximum (in ClC(Cl)Cl): 500 nm

c1ccc(B2Nc3cc4c(cc3-c3sc5ccccc5c32)NB(c2ccccc2)c2c-4sc3ccccc23)cc1
emission maximum (in ClCCl): 418 nm

CCOC(=O)c1c(-c2c(Cl)c3cc(C)ccc3oc2=O)nn(-c2ccccc2)c1C(=O)OCC
emission maximum (in ClCCl): 417 nm

C[Si]1(C)c2ccc(-c3cccs3)cc2C=Cc2cc(-c3cccs3)ccc21
emission maximum (in ClCCl): 373 nm

CC(=O)c1ccc(-c2nc3ccc(N(C)C)c(Cl)c3s2)cc1
emission maximum (in C1CCCCC1): 424 nm
emission maximum (in CC#N): 568 nm
emission maximum (in CC(C)O): 585.02 nm
emission maximum (in CO): 629 nm
emission maximum (in CS(C)=O): 569.23 nm
emission maximum (in ClC(Cl)Cl): 506 nm
emission maximum (in c1ccccc1): 474.9 nm

CC1(C)c2ccccc2-c2cc3c(cc21)c1ccccc1n3-c1ccc2ncccc2c1
emission maximum (in ClCCl): 446 nm

C[Si]1(C)C2=CC(=[N+]3CCC3)C=C(F)C2=Nc2c(F)cc(N3CCC3)cc21
emission maximum (in CCO): 719 nm

CCN(CC)c1ccc2cc(/C=C/C(O)=C3\CC/C(=C\c4cc5ccc(N(CC)CC)cc5oc4=O)C3=O)c(=O)oc2c1
emission maximum (in C1COCCO1): 581 nm
emission maximum (in CC#N): 637 nm
emission maximum (in CC(C)=O): 613 nm
emission maximum (in CCOC(C)=O): 589 nm
emission maximum (in CN(C)C=O): 638 nm
emission maximum (in CS(C)=O): 639 nm
emission maximum (in Cc1ccccc1): 570 nm
emission maximum (in ClC(Cl)Cl): 605 nm

COC(=O)/C=C/c1sc(-c2ccc(N(C)C)s2)c(-c2ccsc2)c1N
emission maximum (in CC#N): 557 nm

CCCCCCCCCCCCOc1cc(C(=O)Nc2ccc(-c3ccc4c(c3)C(=O)c3cc(-c5ccc(NC(=O)c6cc(OCCCCCCCCCCCC)c(OCCCCCCCCCCCC)c(OCCCCCCCCCCCC)c6)cc5)ccc3-4)cc2)cc(OCCCCCCCCCCCC)c1OCCCCCCCCCCCC
emission maximum (in C1CCOC1): 542 nm

CN(C)c1ccc(-c2cc(=O)c3ccccc3o2)cc1
emission maximum (in C1CCCCC1): 382.35 nm
emission maximum (in CC#N): 474 nm and 462.75 nm
emission maximum (in CCOC(C)=O): 442 nm and 433.73 nm
emission maximum (in Cc1ccccc1): 417 nm

COOCc1noc(-c2ccccc2)c1Cl
emission maximum (in C1CCCCC1): 345 nm

CC(C)c1cccc(C(C)C)c1N1C(c2ccccc2)=Cc2ccc3ccccc3[n+]2[B-]1(F)F
emission maximum (in ClCCl): 472 nm

c1ccc2cc(-n3c4ccccc4c4ccccc43)ccc2c1
emission maximum (in C1CCCCC1): 362 nm
emission maximum (in C1CCOC1): 374 nm
emission maximum (in CC#N): 388 nm
emission maximum (in CCO): 379 nm
emission maximum (in CCOC(C)=O): 372 nm
emission maximum (in CCOCC): 368 nm
emission maximum (in CO): 382 nm
emission maximum (in Cc1ccccc1): 364 nm
emission maximum (in ClC(Cl)Cl): 376 nm

c1ccc(-c2nc(-c3ccccc3)nc(-c3ccc(-n4c5ccccc5c5cc6c(cc54)C4c5ccccc5C6c5ccccc54)cc3)n2)cc1
emission maximum (in Cc1ccccc1): 432 nm
emission maximum [1]: 457 nm

CN(C)c1ccc(-c2nc3nc4ccccc4nc3n2-c2ccccc2)cc1
emission maximum (in CC#N): 528 nm

CCCCCCC(CCCCCC)N1C(=O)c2cccc3c(-c4ccc([Si](C)(C)C)cc4)ccc(c23)C1=O
emission maximum (in CCCCCC): 406.7 nm
emission maximum (in CCCCCCCCCCCCCC): 407 nm
emission maximum (in CCCCCCCCCCCO): 430.6 nm
emission maximum (in CCCCO): 434.2 nm
emission maximum (in CN(C)C=O): 432.7 nm
emission maximum (in Cc1ccccc1): 416.7 nm
emission maximum (in ClC(Cl)Cl): 425.4 nm

c1ccc(-c2nc(-c3ccccc3)nc(-c3ccc(-c4ccc5c(c4)[Si](c4ccccc4)(c4ccccc4)c4cc(-c6ccc(-c7nc(-c8ccccc8)nc(-c8ccccc8)n7)cc6)ccc4N5c4ccccc4)cc3)n2)cc1
emission maximum (in c1cc(-c2cccc(-n3c4ccccc4c4ccccc43)c2)cc(-n2c3ccccc3c3ccccc32)c1): 459 nm

COC(=O)c1c(-c2cc3ccccc3oc2=O)nn(-c2cccc(C)c2)c1C(=O)OC
emission maximum (in ClCCl): 401 nm

CCCCCN1c2ccccc2Sc2cc(/C=C/c3ccc(/C=C(\C#N)C(=O)O)s3)ccc21
emission maximum (in ClCCl): 704 nm

C(=C\c1cc(/C=C/c2ccc(N(c3ccccc3)c3ccccc3)cc2)ncn1)/c1ccc(N(c2ccccc2)c2ccccc2)cc1
emission maximum (in ClCCl): 540 nm

CCN(CC)c1ccc2c(-c3ccccc3C(=O)O)c3c([o+]c2c1)/C(=C/c1nc(C)n2ccccc12)CCC3
emission maximum (in ClCCl): 735 nm

Cc1cc(=O)oc2cc(O)ccc12
emission maximum (in CCO): 380 nm

O=C1C2=C3c4sccc4C=CN3C(=O)C2=C2c3sccc3C=CN12
emission maximum (in CN(C)C=O): 618 nm
emission maximum (in ClC(Cl)Cl): 609 nm

Cc1ccc(C#Cc2ccc3nc4ccc(C#Cc5ccc(C)cc5)cn4c(=O)c3c2)cc1
emission maximum (in ClCCl): 480 nm

COc1c2ccccc2c(OC)c2c1c1cccc(OC)c1n2C
emission maximum (in C1CCCCC1): 418 nm
emission maximum (in CC#N): 433 nm
emission maximum (in CO): 429 nm
emission maximum (in ClCCl): 431 nm

FC(F)(F)c1ccc(-c2ccc(-c3cc(-c4ccccn4)nc(-c4ccccn4)c3)cc2)cc1
emission maximum (in ClCCl): 359 nm

F[B-]12OC(c3ccccc3)=Nc3cccc([n+]31)N=C(c1ccccc1)O2
emission maximum (in ClCCl): 456 nm

COc1cc(OC)c2c(c1)c1cc3oc(=O)cc(C)c3cc1c1cc(OC)cc(OC)c12
emission maximum (in ClC(Cl)Cl): 538 nm

Cc1c(-c2ccc(N3c4ccccc4C(C)(C)c4ccccc43)cc2)ncnc1-c1ccc(N2c3ccccc3C(C)(C)c3ccccc32)cc1
emission maximum (in Cc1ccccc1): 477 nm
emission maximum [1]: 481 nm

COC(=O)c1ccc(-c2ccc3c(c2)C(=O)c2cc(-c4ccc(C(=O)OC)cc4)ccc2-3)cc1
emission maximum (in C1CCOC1): 366 nm

CC(=O)OC[C@H]1O[C@@H](OCC#Cc2ccc(C3=C4C(C)=CC(/C=C/c5ccc(N(C)C)cc5)=[N+]4[B-](F)(F)n4c(/C=C/c5ccc(N(C)C)cc5)cc(C)c43)cc2)[C@H](OC(C)=O)C(OC(C)=O)[C@@H]1OC(C)=O (some centres undefined)
emission maximum (in CC#N): 769 nm

Cc1cc(C)c(B(c2cc(C#Cc3ccccc3)sc2-c2sc(C#Cc3ccccc3)cc2P(=O)(c2ccccc2)c2ccccc2)c2c(C)cc(C)cc2C)c(C)c1
emission maximum (in CO): 560 nm

Oc1cccc(-c2nc(-c3ccccc3)c(-c3ccccc3)[nH]2)c1
emission maximum (in CO): 390 nm
